Measured values: patent publication US20240261297A1, “ANTI-CDK INHIBITORS FOR CANCER TREATMENT” (St. John's Cancer Institute, priority 2021, published 2024)
Read-outs that look alike come from different tables or passages of the source.

What was measured:
CDK5/p35 = CDK5/p35 (Homo sapiens, UniProt Q00535); assay: Radioisotope-based protein kinase assay; type: biochemical; details: Table 2
Protocol: (§1) A series of test compounds were selected for initial screening against CDK isoforms. Protein kinase assays were performed with gold standard radioisotope-based assay formats to measuring enzyme activity remaining in presence and absence of inhibitor.
The activity of compound I-3 was compared to that of a panel of CDKs and their respective binding partners (Tables 2 and 3).

CKD9/Cyclin H = CKD9/Cyclin H (Homo sapiens, UniProt P50750); assay: Biochemical profile against CDKs and binding partners (Table 3)
Sequence of CKD9/Cyclin H (P50750 whole entry): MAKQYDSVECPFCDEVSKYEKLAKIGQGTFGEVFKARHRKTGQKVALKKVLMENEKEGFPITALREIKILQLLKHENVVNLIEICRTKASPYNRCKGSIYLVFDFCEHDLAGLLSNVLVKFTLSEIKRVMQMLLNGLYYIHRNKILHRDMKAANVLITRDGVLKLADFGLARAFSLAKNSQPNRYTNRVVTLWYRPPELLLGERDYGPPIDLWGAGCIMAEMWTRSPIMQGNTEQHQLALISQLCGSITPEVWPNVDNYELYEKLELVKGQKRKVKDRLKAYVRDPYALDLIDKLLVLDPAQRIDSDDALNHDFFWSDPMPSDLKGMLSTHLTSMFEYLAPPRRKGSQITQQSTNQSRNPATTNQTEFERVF
Protocol: as §1

CDK1/Cyclin B1 = target: T1, CDK1/Cyclin B1 (Homo sapiens, UniProt P06493); assay: NanoBRET target engagement intracellular kinase assay in HEK293 cells; type: cell-based; details: transfected HEK293 cells; 10-dose, 3-fold from 10 μM, duplicate
T1 construct: expressed in transfected cells; host or cells: HEK293
T1 sequence (P06493 whole entry): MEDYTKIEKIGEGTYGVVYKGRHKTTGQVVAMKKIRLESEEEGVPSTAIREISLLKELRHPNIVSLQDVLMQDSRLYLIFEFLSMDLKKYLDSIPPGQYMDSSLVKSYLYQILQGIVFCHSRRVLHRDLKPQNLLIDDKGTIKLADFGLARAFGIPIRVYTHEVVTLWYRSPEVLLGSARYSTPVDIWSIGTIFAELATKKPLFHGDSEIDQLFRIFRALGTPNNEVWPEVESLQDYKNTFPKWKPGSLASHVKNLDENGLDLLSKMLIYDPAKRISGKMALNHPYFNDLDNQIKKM
T1 sequence (P14635 whole entry partner): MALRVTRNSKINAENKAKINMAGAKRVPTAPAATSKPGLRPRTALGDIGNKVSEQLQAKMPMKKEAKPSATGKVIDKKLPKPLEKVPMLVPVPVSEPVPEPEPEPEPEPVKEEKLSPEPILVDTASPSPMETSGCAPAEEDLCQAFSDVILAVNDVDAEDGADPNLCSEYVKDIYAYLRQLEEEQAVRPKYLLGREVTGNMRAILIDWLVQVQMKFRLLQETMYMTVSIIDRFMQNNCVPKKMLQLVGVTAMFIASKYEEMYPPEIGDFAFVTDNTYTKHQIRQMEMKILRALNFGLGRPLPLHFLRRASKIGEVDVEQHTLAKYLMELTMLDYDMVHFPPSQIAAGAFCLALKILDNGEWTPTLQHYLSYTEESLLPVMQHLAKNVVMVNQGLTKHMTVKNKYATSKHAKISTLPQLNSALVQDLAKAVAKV
Protocol: (§2) Compound 1-3 efficacy was assessed in several in vitro assays. A nanoBrET assay was used to measure intracellular kinase activity of I-3 with CDK2, CDK1, CDK7 and CDK9. Briefly, HEK293 cells were transfected with CDK2, CDK1, CDK7 and CDK9. The transfected cells were treated in duplicate with test compound I-3 (starting at 10 μM, 10-dose with 3-fold dilution) and target engagement was measured by NanoBRET assay (FIG. 2A and Table 4). Cellular thermal shift assay (CETSA) was also performed to evaluate drug target interaction in the cells. The CETSA method is built upon two concepts: cellular thermal shift and isothermal dose-response. The cellular thermal shift assay is based on the established fact that proteins that are complexed to a ligand become more resistant to heat induced unfolding. Isothermal dose response is used to determine a compound's potency in binding the target by measuring the thermal stability of the target treated with various concentrations of compound at a fixed temperature. Briefly, cell lysate was treated with I-3 (starting at 300 nM, 10-dose with 3-fold dilution) and incubated for 1 hour and cell lysates were then subjected to predetermined thermal aggregation temperature (58° C.) for another 20 min. Western blot was performed to determine the levels of target protein bound to I-3 (FIG. 2B).

CDK2/Cyclin E1 = target: T2, CDK2/Cyclin E1 (Homo sapiens, UniProt P24941); assay: as above; type: cell-based; details: transfected HEK293 cells; 10-dose, 3-fold from 10 μM, duplicate
T2 construct: expressed in transfected cells; host or cells: HEK293
Protocol: as §2

CDK7/cyclin H = CDK7/cyclin H (Homo sapiens, UniProt P50613); assay: as above; type: cell-based; details: transfected HEK293 cells; 10-dose, 3-fold from 10 μM, duplicate
Sequence of CDK7/cyclin H (P50613 whole entry): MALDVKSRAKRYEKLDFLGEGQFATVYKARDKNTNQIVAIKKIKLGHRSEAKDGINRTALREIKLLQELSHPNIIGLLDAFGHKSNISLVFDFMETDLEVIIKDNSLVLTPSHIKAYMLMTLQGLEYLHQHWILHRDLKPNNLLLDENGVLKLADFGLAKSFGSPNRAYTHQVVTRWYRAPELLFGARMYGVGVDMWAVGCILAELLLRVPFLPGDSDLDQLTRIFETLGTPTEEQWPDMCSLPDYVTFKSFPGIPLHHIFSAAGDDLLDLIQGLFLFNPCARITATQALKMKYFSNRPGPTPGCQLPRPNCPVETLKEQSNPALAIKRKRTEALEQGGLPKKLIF
Sequence of CDK7/cyclin H (P51946 whole entry partner): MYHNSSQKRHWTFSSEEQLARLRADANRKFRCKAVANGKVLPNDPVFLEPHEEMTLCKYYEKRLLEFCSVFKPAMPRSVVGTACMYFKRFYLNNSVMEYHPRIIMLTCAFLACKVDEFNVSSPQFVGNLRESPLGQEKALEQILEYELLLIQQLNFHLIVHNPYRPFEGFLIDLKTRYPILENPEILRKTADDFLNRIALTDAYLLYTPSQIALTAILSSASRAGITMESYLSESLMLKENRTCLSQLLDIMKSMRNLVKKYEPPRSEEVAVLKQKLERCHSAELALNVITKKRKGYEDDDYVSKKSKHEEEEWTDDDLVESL
Sequence of CDK7/cyclin H (P51948 whole entry partner): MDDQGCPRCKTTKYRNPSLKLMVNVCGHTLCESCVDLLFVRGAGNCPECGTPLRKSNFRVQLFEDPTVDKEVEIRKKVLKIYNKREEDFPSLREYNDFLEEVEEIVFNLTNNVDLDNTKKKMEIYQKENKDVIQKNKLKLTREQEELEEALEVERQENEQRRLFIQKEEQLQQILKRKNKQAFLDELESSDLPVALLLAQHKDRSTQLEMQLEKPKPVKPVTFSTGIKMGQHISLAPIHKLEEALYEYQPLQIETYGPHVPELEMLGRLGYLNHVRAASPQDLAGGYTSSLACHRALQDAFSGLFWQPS
Protocol: as §2

CDK9/cyclin T1 = CDK9/cyclin T1 (Homo sapiens, UniProt P50750); assay: as above; type: cell-based; details: transfected HEK293 cells; 10-dose, 3-fold from 10 μM, duplicate
Sequence of CDK9/cyclin T1 (P50750 whole entry): as the sequence (P50750 whole entry) above
Sequence of CDK9/cyclin T1 (O60563 whole entry partner): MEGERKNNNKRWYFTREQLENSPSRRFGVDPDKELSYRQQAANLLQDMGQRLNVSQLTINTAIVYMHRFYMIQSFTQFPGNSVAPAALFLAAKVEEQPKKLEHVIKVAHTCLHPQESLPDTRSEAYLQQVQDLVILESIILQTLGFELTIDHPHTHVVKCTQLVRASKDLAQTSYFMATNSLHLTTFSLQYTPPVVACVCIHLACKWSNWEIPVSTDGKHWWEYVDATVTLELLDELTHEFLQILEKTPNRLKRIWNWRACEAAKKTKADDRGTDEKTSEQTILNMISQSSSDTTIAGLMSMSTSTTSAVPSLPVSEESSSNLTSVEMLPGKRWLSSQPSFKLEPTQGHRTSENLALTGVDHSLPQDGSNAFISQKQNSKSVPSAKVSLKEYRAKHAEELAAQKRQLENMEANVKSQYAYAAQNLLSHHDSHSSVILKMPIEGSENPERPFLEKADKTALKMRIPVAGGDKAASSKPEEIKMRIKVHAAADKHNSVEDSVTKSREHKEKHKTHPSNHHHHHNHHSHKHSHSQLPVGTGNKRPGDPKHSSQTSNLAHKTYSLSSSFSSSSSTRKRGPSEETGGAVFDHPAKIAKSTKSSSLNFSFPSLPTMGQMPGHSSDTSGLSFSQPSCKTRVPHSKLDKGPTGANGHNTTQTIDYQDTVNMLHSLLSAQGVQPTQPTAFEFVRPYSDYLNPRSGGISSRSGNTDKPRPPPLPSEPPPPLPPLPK
Protocol: as §2

[1] = test system: pCDK2 and phospho-RB in MDA-MB-468 cells; assay: Western blot of pCDK2 and phospho-Rb in MDA-MB-468 cells; type: cell-based; details: increasing amounts
Protocol: FIGS. 3A-3B show target protein inhibition in Basal like TNBC cells. FIG. 3A is a Western blot showing pCDK2 levels in MDA-MB-468 cells with increasing dose of I-3 (CD11). FIG. 3B is a Western blot showing Phospho-Rb levels in MDA-MB-468 cells with increasing dose of I-3 (CD11).
as §2, with “Briefly, cell lysate was treated with I-3 (starting at 300 nM, 10-dose with 3-fold dilution) and incubated for 1 hour and cell lysates were then subjected to predetermined thermal aggregation temperature (58° C.) for another 20 min. Western blot was performed to determine the levels of target protein bound to I-3 (FIG. 2B).” left out

BT-549 = assay: Cell viability in breast cancer cell lines; type: cell-based; details: Homo sapiens; BT-549 (Mesenchymal), 72 hours; read-out: CTG and Alamar Blue Assay IC50
Excerpt: (§3) Tables 5 and 6 show assessment of in vitro efficacy of I-3 in a panel of breast cancer cell lines.

MDA-MB-231 = assay: Cell viability in breast cancer cell lines; type: cell-based; details: Homo sapiens; MDA-MB-231 (Mesenchymal-like), 72 hours; read-out: CTG and Alamar Blue Assay IC50
Excerpt: as §3

MDA-MB-468 = assay: Cell viability in breast cancer cell lines; type: cell-based; details: Homo sapiens
Excerpt: as §3

T47D = assay: Cell viability in breast cancer cell lines; type: cell-based; details: Homo sapiens; T47D (Ductal carcinoma), 72 hours; read-out: CTG and Alamar Blue Assay IC50
Excerpt: as §3

MCF-10A = assay: Cell viability in breast cell lines; type: cell-based; details: Homo sapiens, 72 hours
Excerpt: as §3

[2] = test system: caspase 3/7 in MDA-MB-468 cells; assay: Caspase Glo 3/7 activity assay in MDA-MB-468 cells; type: cell-based; details: 24 hours
Protocol: Further anti-proliferative effect of 1-3 was evaluated in the TNBC cell line MDA-MB-468 based on biomarker (CDK2) inhibition. […] The mechanistic cell cycle block is aligned with biomarker. In addition, Caspase Glo 3/7 activation was tested to confirm the sub-G1 (apoptotic) arrest in cell cycle.

PLC/PRF/5 cells = assay: Cell viability of HCC cells by CellTiter Glo assay; type: cell-based; details: Homo sapiens, 72 hours
Protocol: FIG. 5 is a graph showing cell viability of hepatocellular carcinoma (HCC) cell lines treated with I-3 for 72 hours, assessed by CellTiter Glo assay, with the control level of cells considered 100%.
I-3 was also tested for efficacy on hepatocellular carcinoma (HCC) cell lines. Cell viability was measured by CellTiter Glo assay (FIG. 5 and Table 8).

[3] = Absolute bioavailability / PK after IV and PO dosing in CD-1 male mice; type: in vivo; details: for Vd / AUC(0-t) / Tmax: male
Protocol: Absolute bioavailability of I-3 was assessed after IV and PO dosing in CD-1 male mice. Mean plasma concentration (FIG. 6) and PK parameters (Table 12) are shown. […] Plasma concentrations were observed up to 8 hours, and plasma concentrations were not observed at 24 hour time point. […] This is approximately 50% of the hepatic blood flow ([…]) in mice.

CDK2/cyclin E = CDK2/cyclin E (Homo sapiens, UniProt P24941); assay: Cellular thermal shift assay (CETSA), isothermal dose response; type: binding; parameters: endogenous in cells; details: cell lysate, from 300 nM, 1 hour, 58° C. 20 min, Western blot
Protocol: as §2

[4] = CD-1, mouse, plasma, male CD1 mice, PO 10 mg/kg

Sequence of CDK5/p35 (Q00535 whole entry, canonical isoform): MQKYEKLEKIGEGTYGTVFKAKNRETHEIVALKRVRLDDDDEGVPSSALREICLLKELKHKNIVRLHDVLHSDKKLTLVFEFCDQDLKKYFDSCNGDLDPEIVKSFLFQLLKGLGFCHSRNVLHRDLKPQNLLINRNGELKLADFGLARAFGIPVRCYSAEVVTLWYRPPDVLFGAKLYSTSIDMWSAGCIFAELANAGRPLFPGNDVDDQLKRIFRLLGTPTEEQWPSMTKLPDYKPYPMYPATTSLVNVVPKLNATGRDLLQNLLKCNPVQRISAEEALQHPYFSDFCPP
Sequence of CDK5/p35 (Q15078 whole entry partner, canonical isoform): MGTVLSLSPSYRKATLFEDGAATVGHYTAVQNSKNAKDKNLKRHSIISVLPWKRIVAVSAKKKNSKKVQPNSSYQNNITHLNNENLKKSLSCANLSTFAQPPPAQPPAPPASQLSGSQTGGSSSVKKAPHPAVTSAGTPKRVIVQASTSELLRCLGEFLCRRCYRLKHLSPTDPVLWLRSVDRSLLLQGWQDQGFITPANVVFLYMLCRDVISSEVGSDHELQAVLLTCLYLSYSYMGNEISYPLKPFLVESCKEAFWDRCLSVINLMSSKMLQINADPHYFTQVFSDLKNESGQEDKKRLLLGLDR

SMILES: Nc1nccc(-c2c[nH]c3nccc(Oc4cccc(F)c4)c23)n1 [I-3, 4-(4-(3-fluorophenoxy)-1H-pyrrolo[2,3-b]pyridin-3-yl)pyrimidin-2-amine]
- IC50 (CDK5/p35): 8 nM
- IC50 (CKD9/Cyclin H): 7 nM
- IC50 (CDK1/Cyclin B1): 1070 nM
- IC50 (CDK2/Cyclin E1): 22 nM
- IC50 (CDK7/cyclin H): 403 nM
- IC50 (CDK9/cyclin T1): 702 nM
- pCDK2 levels [1]: reduced
- phosphor-RB levels [1]: reduced
- IC50 (BT-549): 765 nM
- IC50 (MDA-MB-231): 565 nM
- IC50 (MDA-MB-468; MDA-MB-468 (Basal-like 1), 72 hours, read-out: CTG and Alamar Blue Assay IC50): 276 nM
- IC50 (MDA-MB-468; MDA-MB-468, 72 hours, Table 6, read-out: Cell viability by CellTiter Glo IC50): 276 nM
- IC50 (T47D): 55500 nM
- IC50 (MCF-10A; MCF-10A (Normal breast-like), read-out: CTG and Alamar Blue Assay IC50): 2070 nM
- IC50 (MCF-10A; MCF-10A, Table 6, read-out: Cell viability by CellTiter Glo IC50): 2070 nM
- Caspase 3/7 activation [2]: clear activation of caspase 3/7
- IC50 ([2]; Homo sapiens): 652 nM
- IC50 (PLC/PRF/5 cells): 1520 nM
- half-life ([3]; CD-1, mouse, plasma, male CD1 mice, IV 1 mg/kg): 3.4 ± 0.7 h
- clearance ([3]; CD-1, mouse, plasma, male CD1 mice, IV 1 mg/kg, read-out: CLp (converted)): 41.7 mL/min/kg
- AUC(0-inf) [3, 4]: 6570 ± 542 ng·h/mL
- Cmax [3, 4]: 2500 ± 55.5 ng/mL
- Plasma clearance ([3]; CD-1 male mice, IV): 41.7 mL/min/kg
- Plasma clearance as share of hepatic blood flow (5.4 L/kg) in mice ([3]; CD-1 male mice, IV): approximately 50%
- Volume of distribution compared to total body water content (0.7 L/kg) ([3]; CD-1 male mice, IV): 17 fold
- Time up to which plasma concentrations were observed ([3]; CD-1 male mice, after IV administration, not observed at 24 hour): up to 8 hours
- Bioavailability (% F) ([3]; male CD1 mice, PO 10 mg/kg vs IV 1 mg/kg): 147.5 ± 14.8 % F
- Vd ([3]; CD-1, mouse, plasma, iv, 1 mg/kg, CD-1 male mice, IV, read-out: Volume of distribution): 12.5 L/kg
- AUC(0-t) ([3]; CD-1, mouse, plasma, iv, 1 mg/kg, male CD1 mice, IV 1 mg/kg): 384 ± 98.9 ng·h/mL
- Vd ([3]; CD-1, mouse, plasma, iv, 1 mg/kg, male CD1 mice, IV 1 mg/kg, read-out: Vdss): 6.8 ± 2.4 L/kg
- AUC(0-t) ([3]; CD-1, mouse, plasma, po, 10 mg/kg, CD-1 male mice, PO 10 mg/kg): 5670 ng·h/mL
- Tmax ([3]; CD-1, mouse, plasma, po, 10 mg/kg, CD-1 male mice, PO 10 mg/kg, read-out: Tmax (oral absorption)): 0.5 to 1 h
- AUC(0-t) ([3]; CD-1, mouse, plasma, po, 10 mg/kg, male CD1 mice, PO 10 mg/kg): 5670 ± 569 ng·h/mL
- Tmax ([3]; CD-1, mouse, plasma, po, 10 mg/kg, male CD1 mice, PO 10 mg/kg, read-out: Tmax): 1 ± 0.3 h
- bioavailability ([3]; mouse, plasma, CD-1 male mice, PO 10 mg/kg, read-out: Oral suspension bioavailability (% F)): > 100%
- Binding of CDK2/Cyclin E in drug target engagement methods (CETSA, NanoBRET) (CDK2/cyclin E): potent binding (nanomolar range)
